# Laboratory results as given in article PMC5218480 (PLoS ONE, 2017).
# Tested on: MV-4-11 cells
# Test: Gene expression microarray analysis (Affymetrix PrimeView) and GSEA
# Format: cell-based, human
# Parameters: RFU PODN (11730768_x_at) / Fold change /veh PODN (11730768_x_at) / RFU LINC00158 (11744669_a_at) / Fold change /veh LINC00158 (11744669_a_at) / RFU DUSP10 (11751237_a_at) / Fold change /veh DUSP10 (11751237_a_at) / RFU ID3 (11757404_x_at) / Fold change /veh ID3 (11757404_x_at) / RFU PLEKHG5 (11737974_s_at) / Fold change /veh PLEKHG5 (11737974_s_at) / RFU LRRC4B (11730491_at) / Fold change /veh LRRC4B (11730491_at) / RFU GIMAP4 (11747438_a_at) / Fold change /veh GIMAP4 (11747438_a_at) / RFU KRT8 (11758183_x_at) / Fold change /veh KRT8 (11758183_x_at) / RFU CNN1 (11734310_a_at) / Fold change /veh CNN1 (11734310_a_at) / RFU VPS37D (11726825_at) / Fold change /veh VPS37D (11726825_at) / RFU C10orf10 (11716522_x_at) / Fold change /veh C10orf10 (11716522_x_at) / RFU KIR2DL2 /// KIR2DL4 /// KIR2DL5A /// KIR2DL5B /// KIR2DS1 /// KIR2DS2 /// KIR2DS3 /// KIR2DS4 /// KIR3DL3 /// KIR3DL3 /// KIR3DS1 (11738374_at) / Fold change /veh KIR2DL2 /// KIR2DL4 /// KIR2DL5A /// KIR2DL5B /// KIR2DS1 /// KIR2DS2 /// KIR2DS3 /// KIR2DS4 /// KIR3DL3 /// KIR3DL3 /// KIR3DS1 (11738374_at) / RFU C1QL1 (11718748_at) / Fold change /veh C1QL1 (11718748_at) / RFU TMPRSS4 (11747572_a_at) / Fold change /veh TMPRSS4 (11747572_a_at) / RFU HAMP (11756126_x_at) / Fold change /veh HAMP (11756126_x_at) / RFU RNFT2 (11725882_a_at) / Fold change /veh RNFT2 (11725882_a_at) / RFU NR4A2 (11747474_a_at) / Fold change /veh NR4A2 (11747474_a_at) / RFU ABCC12 (11746883_a_at) / Fold change /veh ABCC12 (11746883_a_at) / RFU TMEM136 (11760407_x_at) / Fold change /veh TMEM136 (11760407_x_at) / RFU CLDN22 /// WWC2 (11732394_at) / Fold change /veh CLDN22 /// WWC2 (11732394_at) / RFU HLA-DPB1 (11760878_x_at) / Fold change /veh HLA-DPB1 (11760878_x_at) / RFU SPINT1 (11716480_a_at) / Fold change /veh SPINT1 (11716480_a_at) / RFU GAP43 (11754022_s_at) / Fold change /veh GAP43 (11754022_s_at) / RFU A4GNT (11735810_at) / Fold change /veh A4GNT (11735810_at) / RFU PRB3 (11715151_x_at) / Fold change /veh PRB3 (11715151_x_at) / RFU TUBB4B (11761932_at) / Fold change /veh TUBB4B (11761932_at) / RFU CAPN14 (11732068_a_at) / Fold change /veh CAPN14 (11732068_a_at) / RFU TMCC2 (11721928_a_at) / Fold change /veh TMCC2 (11721928_a_at) / RFU IRGQ (11745062_a_at) / Fold change /veh IRGQ (11745062_a_at) / RFU FAM174B (11720279_a_at) / Fold change /veh FAM174B (11720279_a_at) / RFU TMPRSS4 (11748680_a_at) / Fold change /veh TMPRSS4 (11748680_a_at) / RFU FAM212B (11763350_a_at) / Fold change /veh FAM212B (11763350_a_at) / RFU PLEKHG5 (11743358_a_at) / Fold change /veh PLEKHG5 (11743358_a_at) / RFU ZSCAN30 (11745921_a_at) / Fold change /veh ZSCAN30 (11745921_a_at) / RFU CMKLR1 (11741424_a_at) / Fold change /veh CMKLR1 (11741424_a_at) / RFU LOC101060620 /// MAPK8IP1 (11723275_at) / Fold change /veh LOC101060620 /// MAPK8IP1 (11723275_at) / RFU SPTSSB (11747773_x_at) / Fold change /veh SPTSSB (11747773_x_at) / RFU PRSS12 (11739890_at) / Fold change /veh PRSS12 (11739890_at) / RFU BIN1 (11741810_x_at) / Fold change /veh BIN1 (11741810_x_at) / RFU WNT11 (11732464_a_at) / Fold change /veh WNT11 (11732464_a_at) / RFU C10orf10 (11716521_a_at) / Fold change /veh C10orf10 (11716521_a_at) / RFU C5orf56 (11738089_at) / Fold change /veh C5orf56 (11738089_at) / RFU CYB561 (11721691_x_at) / Fold change /veh CYB561 (11721691_x_at) / RFU ANKRD19P (11752326_a_at) / Fold change /veh ANKRD19P (11752326_a_at) / RFU OR2T12 /// OR2T33 /// OR2T8 (11738714_s_at) / Fold change /veh OR2T12 /// OR2T33 /// OR2T8 (11738714_s_at) / RFU VCAN (11748164_a_at) / Fold change /veh VCAN (11748164_a_at) / RFU JSRP1 (11732532_at) / Fold change /veh JSRP1 (11732532_at) / RFU KRTAP10-11 (11738290_x_at) / Fold change /veh KRTAP10-11 (11738290_x_at) / RFU MYO3A (11730013_a_at) / Fold change /veh MYO3A (11730013_a_at) / RFU EBF3 (11725865_a_at) / Fold change /veh EBF3 (11725865_a_at) / RFU CAMK2N1 (11719241_x_at) / Fold change /veh CAMK2N1 (11719241_x_at) / RFU C5orf56 (11738088_a_at) / Fold change /veh C5orf56 (11738088_a_at) / RFU OLFML3 (11715873_a_at) / Fold change /veh OLFML3 (11715873_a_at) / RFU LOC100653217 /// NTM (11731650_a_at) / Fold change /veh LOC100653217 /// NTM (11731650_a_at) / RFU MAPK11 (11762145_a_at) / Fold change /veh MAPK11 (11762145_a_at) / RFU FIZ1 (11724087_x_at) / Fold change /veh FIZ1 (11724087_x_at) / RFU OASL (11726364_x_at) / Fold change /veh OASL (11726364_x_at) / RFU SOX15 (11748057_x_at) / Fold change /veh SOX15 (11748057_x_at) / RFU CD79A (11719716_a_at) / Fold change /veh CD79A (11719716_a_at) / RFU HIST1H1D (11736915_at) / Fold change /veh HIST1H1D (11736915_at) / RFU CASKIN2 (11723855_a_at) / Fold change /veh CASKIN2 (11723855_a_at) / RFU LOC730098 (11760151_x_at) / Fold change /veh LOC730098 (11760151_x_at) / RFU OR4N2 (11742367_at) / Fold change /veh OR4N2 (11742367_at) / RFU PRRT2 (11749266_a_at) / Fold change /veh PRRT2 (11749266_a_at) / RFU SNX32 (11753110_a_at) / Fold change /veh SNX32 (11753110_a_at) / RFU CDHR5 (11726645_a_at) / Fold change /veh CDHR5 (11726645_a_at) / RFU RCAN1 (11760418_a_at) / Fold change /veh RCAN1 (11760418_a_at) / RFU FAM167A (11723789_a_at) / Fold change /veh FAM167A (11723789_a_at) / RFU FAM26E (11764081_at) / Fold change /veh FAM26E (11764081_at) / RFU ISYNA1 (11749810_s_at) / Fold change /veh ISYNA1 (11749810_s_at) / RFU ACY1 (11761880_at) / Fold change /veh ACY1 (11761880_at) / RFU 11764098_at / Fold change /veh 11764098_at / RFU SAMD14 (11745864_x_at) / Fold change /veh SAMD14 (11745864_x_at) / RFU NPB (11741838_a_at) / Fold change /veh NPB (11741838_a_at) / RFU TMPRSS6 (11731388_a_at) / Fold change /veh TMPRSS6 (11731388_a_at) / RFU KRTAP10-2 (11738614_at) / Fold change /veh KRTAP10-2 (11738614_at) / RFU ARHGAP8 /// PRR5-ARHGAP8 (11727945_x_at) / Fold change /veh ARHGAP8 /// PRR5-ARHGAP8 (11727945_x_at) / RFU KRTAP5-7 /// NADSYN1 (11734609_at) / Fold change /veh KRTAP5-7 /// NADSYN1 (11734609_at) / RFU RASL12 (11751679_a_at) / Fold change /veh RASL12 (11751679_a_at) / RFU CDKN2B (11736163_a_at) / Fold change /veh CDKN2B (11736163_a_at) / RFU PRF1 (11729649_at) / Fold change /veh PRF1 (11729649_at) / RFU, ZNF638 /// ZNF638-IT1 / Fold change vs veh, ZNF638 /// ZNF638-IT1 / RFU, PANK3 / Fold change vs veh, PANK3 / RFU, SH3YL1 / Fold change vs veh, SH3YL1 / RFU, ZEB2 / Fold change vs veh, ZEB2 / RFU, NRIP1 / Fold change vs veh, NRIP1 / RFU, PTTG1IP / Fold change vs veh, PTTG1IP / RFU, CAPN2 / Fold change vs veh, CAPN2 / RFU, MED14 / Fold change vs veh, MED14 / RFU, SNORA58 / Fold change vs veh, SNORA58 / RFU, C1orf63 / Fold change vs veh, C1orf63 / RFU, LRRFIP1 / Fold change vs veh, LRRFIP1 / RFU, NDUFAF7 / Fold change vs veh, NDUFAF7 / RFU, SLC12A2 / Fold change vs veh, SLC12A2 / RFU, IBTK / Fold change vs veh, IBTK / RFU, ESF1 / Fold change vs veh, ESF1 / Fold change vs veh, TMEM50B / RFU, TAOK1 / Fold change vs veh, TAOK1 / RFU, ACBD3 / Fold change vs veh, ACBD3 / RFU, TMA16 / Fold change vs veh, TMA16 / RFU, RWDD3 / Fold change vs veh, RWDD3 / RFU, BCAT1 / Fold change vs veh, BCAT1 / RFU, EDEM3 / Fold change vs veh, EDEM3 / RFU, TMEM33 / Fold change vs veh, TMEM33 / RFU, WDR75 / Fold change vs veh, WDR75 / RFU, AHCTF1 / Fold change vs veh, AHCTF1 / RFU, TFRC / Fold change vs veh, TFRC / RFU, ZDHHC17 / Fold change vs veh, ZDHHC17 / RFU, NOM1 / Fold change vs veh, NOM1 / RFU, ARL8B / Fold change vs veh, ARL8B / RFU, ZBTB11 / Fold change vs veh, ZBTB11 / RFU, TAMM41 / Fold change vs veh, TAMM41 / RFU, KIAA1704 /// LOC100996395 / Fold change vs veh, KIAA1704 /// LOC100996395 / RFU, ING1 / Fold change vs veh, ING1 / RFU, TRMT61B / Fold change vs veh, TRMT61B / RFU, FUBP3 / Fold change vs veh, FUBP3 / RFU, TP53 / Fold change vs veh, TP53 / RFU, TNKS2 / Fold change vs veh, TNKS2 / RFU, ZFP14 / Fold change vs veh, ZFP14 / RFU, ACTR2 / Fold change vs veh, ACTR2 / RFU, PPP3R1 / Fold change vs veh, PPP3R1 / RFU, PIK3R1 / Fold change vs veh, PIK3R1 / RFU, HNRNPA1 / Fold change vs veh, HNRNPA1 / RFU, RNF170 / Fold change vs veh, RNF170 / RFU, ZNF28 / Fold change vs veh, ZNF28 / RFU, RNGTT / Fold change vs veh, RNGTT / RFU, OGT / Fold change vs veh, OGT / RFU, BRD1 / Fold change vs veh, BRD1 / RFU, MARS / Fold change vs veh, MARS / RFU, ZNF655 / Fold change vs veh, ZNF655 / RFU, FAHD1 / Fold change vs veh, FAHD1 / RFU, BDP1 / Fold change vs veh, BDP1 / RFU, LRRCC1 / Fold change vs veh, LRRCC1 / RFU, ARID1A / Fold change vs veh, ARID1A / RFU, ZNF146 / Fold change vs veh, ZNF146 / RFU, ZNF330 / Fold change vs veh, ZNF330 / RFU, GPN3 / Fold change vs veh, GPN3 / RFU, C9orf123 / Fold change vs veh, C9orf123 / RFU, N4BP2L2 / Fold change vs veh, N4BP2L2 / RFU, ARFIP1 / Fold change vs veh, ARFIP1 / RFU, FAM179B / Fold change vs veh, FAM179B / RFU, BCL10 / Fold change vs veh, BCL10 / RFU, UHRF1BP1L / Fold change vs veh, UHRF1BP1L / RFU, BET1 / Fold change vs veh, BET1 / RFU, CNOT2 / Fold change vs veh, CNOT2 / RFU, ZNF268 / Fold change vs veh, ZNF268 / Fold change vs veh, ZNF507 / RFU, DGCR2 / Fold change vs veh, DGCR2 / RFU, WDSUB1 / Fold change vs veh, WDSUB1 / Fold change vs veh, HSP90B1 /// MIR3652 / RFU, ADSS / Fold change vs veh, ADSS / RFU, GK / Fold change vs veh, GK / RFU, ZNF148 / Fold change vs veh, ZNF148 / RFU, TAF9 / Fold change vs veh, TAF9 / RFU, SLC1A5 / Fold change vs veh, SLC1A5 / RFU, SLMO2 / Fold change vs veh, SLMO2 / RFU, ABCC4 / Fold change vs veh, ABCC4 / RFU, LOC101060439 /// RAP1B / Fold change vs veh, LOC101060439 /// RAP1B / RFU, RFX7 / Fold change vs veh, RFX7 / RFU, GTPBP10 / Fold change vs veh, GTPBP10 / RFU, CNEP1R1 / Fold change vs veh, CNEP1R1 / RFU, BIVM-ERCC5 /// ERCC5 / Fold change vs veh, BIVM-ERCC5 /// ERCC5 / RFU, ILF3 / Fold change vs veh, ILF3 / RFU 11762660_at / Fold change /veh 11762660_at / RFU VCAN (11757783_s_at) / Fold change /veh VCAN (11757783_s_at) / RFU DDX43 (11728927_at) / Fold change /veh DDX43 (11728927_at) / RFU KRT8 (11758188_x_at) / Fold change /veh KRT8 (11758188_x_at) / RFU NKD1 (11759106_at) / Fold change /veh NKD1 (11759106_at) / RFU SRD5A1 (11742802_a_at) / Fold change /veh SRD5A1 (11742802_a_at) / RFU TPSAB1 /// TPSB2 (11721975_s_at) / Fold change /veh TPSAB1 /// TPSB2 (11721975_s_at) / RFU GSTM3 (11746129_a_at) / Fold change /veh GSTM3 (11746129_a_at) / RFU IL23R (11737362_x_at) / Fold change /veh IL23R (11737362_x_at) / RFU TMEM51 (11727254_a_at) / Fold change /veh TMEM51 (11727254_a_at) / RFU PIWIL2 (11732686_x_at) / Fold change /veh PIWIL2 (11732686_x_at) / RFU ORM1 (11744905_x_at) / Fold change /veh ORM1 (11744905_x_at) / RFU CCDC152 (11743942_at) / Fold change /veh CCDC152 (11743942_at) / RFU ECM1 (11717891_a_at) / Fold change /veh ECM1 (11717891_a_at) / RFU IL23R (11748794_a_at) / Fold change /veh IL23R (11748794_a_at) / RFU TNFAIP8L3 (11732012_x_at) / Fold change /veh TNFAIP8L3 (11732012_x_at) / RFU MBOAT4 (11741988_at) / Fold change /veh MBOAT4 (11741988_at) / RFU 11764193_at / Fold change /veh 11764193_at / RFU TMEM53 (11763286_at) / Fold change /veh TMEM53 (11763286_at) / RFU MAGEB2 (11727129_at) / Fold change /veh MAGEB2 (11727129_at) / RFU TMEM200A (11744735_a_at) / Fold change /veh TMEM200A (11744735_a_at) / RFU CCDC152 (11751479_a_at) / Fold change /veh CCDC152 (11751479_a_at) / RFU FAM211A (11726209_a_at) / Fold change /veh FAM211A (11726209_a_at) / RFU RGS16 (11746705_a_at) / Fold change /veh RGS16 (11746705_a_at) / RFU VCAN (11755009_s_at) / Fold change /veh VCAN (11755009_s_at) / RFU RHOB (11743442_s_at) / Fold change /veh RHOB (11743442_s_at) / RFU RGS16 (11720943_a_at) / Fold change /veh RGS16 (11720943_a_at) / RFU RGS16 (11720944_at) / Fold change /veh RGS16 (11720944_at) / RFU, VPS4B / Fold change vs veh, VPS4B / RFU, CREB1 / Fold change vs veh, CREB1 / RFU, DNAJC13 / Fold change vs veh, DNAJC13 / RFU, GNAQ / Fold change vs veh, GNAQ / RFU, CDK5R1 / Fold change vs veh, CDK5R1 / RFU, ZRANB3 / Fold change vs veh, ZRANB3 / RFU, CUL4A / Fold change vs veh, CUL4A / RFU, CCNY / Fold change vs veh, CCNY / RFU, UFL1 / Fold change vs veh, UFL1 / RFU, COG3 / Fold change vs veh, COG3 / RFU, DIAPH2 / Fold change vs veh, DIAPH2 / RFU, SKA2 / Fold change vs veh, SKA2 / RFU, AFF3 / Fold change vs veh, AFF3 / RFU, LMF1 / Fold change vs veh, LMF1 / RFU, IPO11 / Fold change vs veh, IPO11 / RFU, DFFB / Fold change vs veh, DFFB / RFU, FOXP1 / Fold change vs veh, FOXP1 / RFU, CARD8 / Fold change vs veh, CARD8 / RFU, STRN3 / Fold change vs veh, STRN3 / RFU, ADK / Fold change vs veh, ADK / RFU, RASSF2 / Fold change vs veh, RASSF2 / RFU, WIPF1 / Fold change vs veh, WIPF1 / RFU, LARP1B / Fold change vs veh, LARP1B / RFU, RASA1 / Fold change vs veh, RASA1 / RFU, RB1 / Fold change vs veh, RB1 / RFU, PPFIA1 / Fold change vs veh, PPFIA1 / RFU, MAT2A / Fold change vs veh, MAT2A / RFU, CCT5 / Fold change vs veh, CCT5 / RFU, WDR92 / Fold change vs veh, WDR92 / RFU, CUX1 / Fold change vs veh, CUX1 / RFU, TTC7A / Fold change vs veh, TTC7A / RFU, TMEM135 / Fold change vs veh, TMEM135 / RFU, DEPTOR / Fold change vs veh, DEPTOR / RFU, CPM / Fold change vs veh, CPM / RFU, DNAJB6 / Fold change vs veh, DNAJB6 / RFU, CACNA2D3 / Fold change vs veh, CACNA2D3 / RFU, DTX4 / Fold change vs veh, DTX4 / RFU, TFCP2 / Fold change vs veh, TFCP2 / RFU, GMCL1 /// GMCL1P1 / Fold change vs veh, GMCL1 /// GMCL1P1 / RFU, AEBP2 / Fold change vs veh, AEBP2 / RFU, SNHG1 /// SNORD22 /// SNORD25 /// SNORD26 /// SNORD27 /// SNORD28 /// SNORD29 /// SNORD31 / Fold change vs veh, SNHG1 /// SNORD22 /// SNORD25 /// SNORD26 /// SNORD27 /// SNORD28 /// SNORD29 /// SNORD31 / Fold change (Aza/veh), C12orf56 (ProbeSet 11735607_a_at) / Fold change (ACY-1035/veh), C12orf56 (ProbeSet 11735607_a_at) / Fold change (Aza/veh), FGFR1OP (ProbeSet 11751329_s_at) / Fold change (ACY-1035/veh), FGFR1OP (ProbeSet 11751329_s_at) / Fold change (Aza/veh), VPS36 (ProbeSet 11739960_a_at) / Fold change (ACY-1035/veh), VPS36 (ProbeSet 11739960_a_at) / RFU SYPL1 (11715823_x_at) / Fold change /veh SYPL1 (11715823_x_at) / RFU IGFBP7 (11715501_s_at) / Fold change /veh IGFBP7 (11715501_s_at) / RFU REEP3 (11722064_at) / Fold change /veh REEP3 (11722064_at) / RFU IGLL1 (11728026_x_at) / Fold change /veh IGLL1 (11728026_x_at): dose or concentration left out as unconfirmed
# Conditions: ProbeSet 11734937_a_at; LIST B
smiles,measurement,value
Nc1ccc(-c2cccs2)cc1NC(=O)c1ccc2c(c1)cc(C1CC1)n2CCN1CCOCC1 [ACY-1035],"RFU, CNOT2",798.97 RFU
